Measurements reported in patent publication US20110076686A1 (priority 2008, published 2011).

These compounds were tested on Legionella pneumophila. Details: DVC step.
Assay type: cell-based
For `CC1=C(C(=O)O)N2C(=O)[C@@H](NC(=O)[C@H](N)c3ccccc3)[C@H]2SC1` [cephalexin], the “effectiveness as DNA gyrase inhibitor / cellular proliferation inhibitor” value was “very effective DNA gyrase inhibitors” and the “elongation of Legionella pneumophila cells and blocking of division” value (“elongation” below) was “allow the Legionella pneumophila cells to elongate in preparation for cell division but actually block these elongated cells from dividing”. For `O=C(O)c1cn(C2CC2)c2cc(N3CCNCC3)c(F)cc2c1=O` [ciprofloxacin, Ciprofloxacin], the “effectiveness as DNA gyrase inhibitor / cellular proliferation inhibitor” value was “very effective DNA gyrase inhibitors” and the “elongation” value was “allow the Legionella pneumophila cells to elongate in preparation for cell division but actually block these elongated cells from dividing”. `CCn1cc(C(=O)O)c(=O)c2ccc(C)nc21` [nalidixic acid] was tested, and the “effectiveness as DNA gyrase inhibitor / cellular proliferation inhibitor” value was “not a reliably effective DNA gyrase inhibitor” and the “elongation” value was “does not provide sufficient elongation”.
